Data: US10206398B2, “Five-membered C-N-attached aryl sulphide and aryl sulphoxide derivatives as pesticides” (BAYER CROPSCIENCE AKTIENGESELLSCHAFT, priority 2014, dated 2019)

How the values were obtained:
Myzus persicae = Myzus persicae - spray test; format: in vivo; settings: 500 g/ha, Chinese cabbage leaf discs, after 6 days
Description: 3. Myzus persicae—Spray Test Solvent: 78 parts by weight of acetone • • 1.5 parts by weight of dimethylformamide Emulsifier: alkylaryl polyglycol ether To produce a suitable preparation of active compound, 1 part by weight of active compound is dissolved using the stated parts by weight of solvent and made up with water containing an emulsifier concentration of 1000 ppm until the desired concentration is attained. To produce further test concentrations, the preparation is diluted with emulsifier-containing water. Discs of Chinese cabbage leaves (Brassica pekinensis) infested by all stages of the green peach aphid (Myzus persicae) are sprayed with an active compound preparation of the desired concentration. After 6 days, the efficacy in % is determined. 100% means that all the aphids have been killed; 0% means that no aphids have been killed.

[1] = log P determination by HPLC on reversed-phase columns (C 18), analogous to OECD Guideline 117; format: physicochemical; settings: for logP[a]: method [a]; for logP[b]: method [b]
In short: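 Reversed-phase C18 HPLC per OECD 117, two conditions: [a] pH 2.7, 0.1% formic acid water/acetonitrile, log P(HCOOH); [b] pH 7.8, 0.001 M ammonium hydrogencarbonate/acetonitrile, log P(neutral). Both use a 10–95% acetonitrile gradient; values are interpolated from retention times against C3–C16 unbranched alkan-2-ones.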

Tetranychus urticae [2] = experiment: Tetranychus urticae - spray test, OP-resistant (bean leaf discs, 6 days); format: in vivo; settings: 500 g/ha, after 6 days
In short: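 Bean leaf discs carrying all stages of OP-resistant Tetranychus urticae were sprayed with compound formulated in acetone/DMF and diluted in water with 1000 ppm emulsifier. Mortality was scored after 6 days as % efficacy, where 100% means all mites were killed.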

Boophilus microplus = Boophilus microplus - injection test; format: in vivo; settings: 20 μg/animal, injection into engorged adult female cattle ticks, assessed after 7 days
Tetranychus urticae [3] = experiment: Tetranychus urticae - spray test, OP-resistant (bean plants, 7 days); format: in vivo; settings: 20 ppm, after 7 days
Description: 6. Tetranychus urticae—Spray Test, OP-Resistant
Solvent: 7 parts by weight of dimethylformamide
Emulsifier: alkylaryl polyglycol ether
To produce a suitable preparation of active compound, 1 part by weight of active compound is dissolved using the stated parts by weight of solvent and made up with water containing an emulsifier concentration of 1000 ppm until the desired concentration is attained. To produce further test concentrations, the preparation is diluted with emulsifier-containing water. If the addition of ammonium salts or/and penetrants is required, these are each added in a concentration of 1000 ppm to the formulation solution.
Bean plants (Phaseolus vulgaris) heavily infested by all stages of the greenhouse red spider mite (Tetranychus urticae) are treated by spraying with the active compound preparation of the desired concentration.
After 7 days, the efficacy in % is determined. 100% means that all the spider mites have been killed; 0% means that no spider mites have been killed.

logP[a] [1] | logP[b] [1] | Structure (SMILES) | efficacy (aphids killed) (Myzus persicae) [%] | efficacy (spider mites killed) (Tetranychus urticae [2]) [%] | efficacy (laying of fertile eggs) (Boophilus microplus) [%] | efficacy (spider mites killed) (Tetranychus urticae [3]) [%]
3.02 | 2.97 | Cc1cc(F)c(N2C(=O)CN(C(=O)Nc3cccc(F)c3)C2=O)cc1[S+]([O-])CC(F)(F)F (centres unmarked) [compound 46] | 90 | 100 | 100 | –
2.4 | 2.43 | Cc1cc(F)c(N2C(=O)CN(C(=O)NCC(F)(F)F)C2=O)cc1[S+]([O-])CC(F)(F)F (single isomer, unassigned) [Ex. No. 136] | – | – | – | 100
